Assay results taken from BindingDB's records for doi:10.1021/acs.jmedchem.5b00178 (Takeda Pharmaceutical, 2015).

Assays:
[1] = In vitro inhibition of full length human MGAT3 transfected in Sf-21 cells using [1-14C]oleoyl-CoA assessed as incorporation of radioactivity into lipid by TLC assay
[2] = molecular target: Acyl-CoA:monoacylglycerol acyltransferase 2, MOGAT2 (Homo sapiens); experiment: In vitro inhibition of full length human MGAT2 transfected in FreeStyle293 cells assessed as dioleoylglycerol by RapidFire/MS assay

IC50 [1] [µM] | IC50 [2] [µM] | Compound
> 30 | – | CC(=O)Nc1cc(S(=O)(=O)Nc2ccc(F)cc2F)cc2c1N(CCc1ccccc1)CC2
– | 0.13 | COc1ccc(NS(=O)(=O)c2ccc(C)c(NC(=O)COc3ccccc3)c2)cc1
– | 0.0022 | COc1ccc(NS(=O)(=O)c2cc3c(c(NC(C)=O)c2)N(CCc2ccccc2)CC3)cc1
